Experimental data published in PubChem BioAssay (NCI).
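Briefly, cells in 96-well plates were exposed to five compound concentrations for 48 h, and endpoints were estimated by linear interpolation. GI50 marks 50% less growth. TGI: total growth inhibition.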

Tests used:
Assay in all cases: NCI anticancer screen, dose series, 48 h
[1] = test system: RXF 393 renal
[2] = test system: MALME-3M melanoma
[3] = test system: NCI-H23 lung
[4] = test system: PC-3 prostate
[5] = test system: HCT-15 colon
[6] = test system: M14 melanoma
[7] = test system: 786-0 renal
[8] = test system: SNB-19 CNS
[9] = test system: SK-MEL-2 melanoma
[10] = test system: A498 renal
[11] = test system: DU-145 prostate
[12] = test system: SK-MEL-28 melanoma
[13] = test system: SF-539 CNS
[14] = test system: SN12C renal
[15] = test system: NCI-H522 lung
[16] = test system: HCT-116 colon
[17] = test system: COLO 205 colon
[18] = test system: OVCAR-8 ovarian
[19] = test system: UACC-62 melanoma
[20] = test system: NCI-H226 lung
[21] = test system: EKVX NSCLC
[22] = test system: A549 NSCLC
[23] = test system: NCI/ADR-RES ovarian
[24] = test system: SK-MEL-5 melanoma
[25] = test system: HCC-2998 colon
[26] = test system: HS 578T breast
[27] = test system: CAKI-1 renal
[28] = test system: MDA-MB-435
[29] = test system: MCF7 breast
[30] = test system: MDA-MB-231 breast
[31] = test system: ACHN renal
[32] = test system: T-47D breast
[33] = test system: LOX IMVI melanoma
[34] = test system: SW-620 colon
[35] = test system: OVCAR-5 ovarian
[36] = test system: UO-31 renal
[37] = test system: SK-OV-3 ovarian
[38] = test system: K-562 leukemia
[39] = test system: UACC-257 melanoma
[40] = test system: NCI-H460 lung
[41] = test system: OVCAR-4 ovarian
[42] = test system: RPMI-8226 leukemia
[43] = test system: KM12 colon
[44] = test system: SF-295 CNS
[45] = test system: BT-549 breast
[46] = test system: HOP-92 NSCLC
[47] = test system: CCRF-CEM leukemia
[48] = test system: MOLT-4 leukemia
[49] = test system: U251 CNS
[50] = test system: TK-10 renal
[51] = test system: HOP-62 NSCLC
[52] = test system: IGROV1 ovarian
[53] = test system: OVCAR-3 ovarian
[54] = test system: SF-268 CNS
[55] = test system: HT29 colon

## COc1ccc2c(c1OC)-c1c(c3ccc([N+](=O)[O-])cc3c(=O)n1CCCN=[N+]=[N-])C2=O
[1]
  GI50: 10.1 µM
  TGI: > 100 µM
[2]
  GI50: > 100 µM
  TGI: > 100 µM
[3]
  GI50: 17.5 µM
  TGI: > 100 µM
[4]
  GI50: 22 µM
  TGI: > 100 µM
[5]
  GI50: > 100 µM
  TGI: > 100 µM
[6]
  GI50: 3.46 µM
  TGI: 10.6 µM
[7]
  GI50: 3.44 µM
  TGI: 15.8 µM
[8]
  GI50: 3.62 µM
  TGI: > 100 µM
[9]
  GI50: > 100 µM
  TGI: > 100 µM
[10]
  GI50: 82.3 µM
  TGI: > 100 µM
[11]
  GI50: 4.88 µM
  TGI: > 100 µM
[12]
  GI50: > 100 µM
  TGI: > 100 µM
[13]
  GI50: 5.23 µM
  TGI: 40.3 µM
[14]
  GI50: 11.5 µM
  TGI: > 100 µM
[15]
  GI50: 3 µM
  TGI: 51.7 µM
[16]
  GI50: 2.93 µM
  TGI: 38.2 µM
[17]
  GI50: > 100 µM
  TGI: > 100 µM
[18]
  GI50: 21 µM
  TGI: > 100 µM
[19]
  GI50: 4.59 µM
  TGI: > 100 µM
[20]
  GI50: 22.8 µM
  TGI: 99.3 µM
[21]
  GI50: > 100 µM
  TGI: > 100 µM
[22]
  GI50: 4.18 µM
  TGI: > 100 µM
[23]
  GI50: 12.2 µM
  TGI: > 100 µM
[24]
  GI50: 12.2 µM
  TGI: > 100 µM
[25]
  GI50: 79.9 µM
  TGI: > 100 µM
[26]
  GI50: > 100 µM
  TGI: > 100 µM
[27]
  GI50: 2.55 µM
  TGI: 9.73 µM
[28]
  GI50: 72.4 µM
  TGI: > 100 µM
[29]
  GI50: 11.2 µM
  TGI: > 100 µM
[30]
  GI50: > 100 µM
  TGI: > 100 µM
[31]
  GI50: 3.63 µM
  TGI: 22.1 µM
[32]
  GI50: 5.29 µM
  TGI: > 100 µM
[33]
  GI50: 5.99 µM
  TGI: > 100 µM
[34]
  GI50: 23.1 µM
  TGI: > 100 µM
[35]
  GI50: > 100 µM
  TGI: > 100 µM
[36]
  GI50: 3.5 µM
  TGI: > 100 µM
[37]
  GI50: 19.4 µM
  TGI: > 100 µM
[38]
  GI50: 23.3 µM
  TGI: > 100 µM
[39]
  GI50: 17.2 µM
  TGI: > 100 µM
[40]
  GI50: 9.97 µM
  TGI: > 100 µM
[41]
  GI50: > 100 µM
  TGI: > 100 µM
[42]
  GI50: 5.18 µM
  TGI: > 100 µM
[43]
  GI50: > 100 µM
  TGI: > 100 µM
[44]
  GI50: 3.11 µM
  TGI: 28.4 µM
[45]
  GI50: > 100 µM
  TGI: > 100 µM
[46]
  GI50: 20.3 µM
  TGI: > 100 µM
[47]
  GI50: 2.04 µM
  TGI: 17.1 µM
[48]
  GI50: 3.12 µM
  TGI: > 100 µM
[49]
  GI50: 6.2 µM
  TGI: > 100 µM
[50]
  GI50: > 100 µM
  TGI: > 100 µM
[51]
  GI50: 5.02 µM
  TGI: 92.8 µM
[52]
  GI50: 1.02 µM
  TGI: 23.9 µM
[53]
  GI50: 56.1 µM
  TGI: > 100 µM
[54]
  GI50: 30.3 µM
  TGI: > 100 µM
[55]
  GI50: 31.7 µM
  TGI: > 100 µM
